Assay: Control of loss of volatile components: amounts in the AI patch after storage (gas chromatography)
Type: physicochemical
Experimental: A transdermal hormone delivery device was prepared comprising an internal backing layer, an AI layer, and a release liner. […] The device also comprised an overlay comprising a polyurethane spun bonded non-woven backing, which is able to absorb large amounts of the volatile excipients, DMSO and ethyl lactate, an acrylic PSA coated onto the polyurethane foam, and a PIB PSA coated on top of the acrylic PSA. […] The release liner was a Mylar polyester film coated with a fluoropolymer release coating. […] The devices were placed in a 25 C or 40 C oven. After 6 weeks and 12 weeks, devices were removed from the oven and the active section of each device was separated from the overlay. […] (12 weeks exposure to 40 C is intended to simulate 18 months exposure to room temperature (25 C)).

| Amount in the AI patch (6 wks, 40 C.) | Amount in the AI patch (12 wks, 40 C.) | Amount in the AI patch (12 wks, room temp) | Structure (SMILES) |
| --- | --- | --- | --- |
| 1.66 wt % | 1.57 wt % | 1.79 wt % | CCOC(=O)C(C)O (stereo not drawn) [Ethyl Lactate, ethyl lactate] |
| 9.02 wt % | 8.98 wt % | 9.08 wt % | C[S+](C)[O-] [DMSO, dimethyl sulfoxide] |
| 9.02 wt % | 9.20 wt % | 9.10 wt % | CCCCCCCCCCCCOC(=O)C(C)O (stereo not drawn) [Lauryl Lactate, lauryl lactate] |

Source: US12070520B2, “Dermal delivery device” (Agile Therapeutics, Inc., priority 2007, dated 2024)
